One assay deals with wild-type EGFR (Homo sapiens (Human), UniProt P00533). Put plainly: In vitro EGFR kinase activity assay (Z'-Lyte). Type of assay: biochemical. To be noted: EGFR WT; read-out: Inhibitory activity on EGFR kinase (IC50, nM) WT.
The target in the next assay is EGFR-L858R (Homo sapiens (Human), UniProt P00533, L858R). Put plainly: In vitro EGFR kinase activity assay (Z'-Lyte). Type of assay: biochemical. To be noted: read-out: Inhibitory activity on EGFR kinase (IC50, nM) L858R.
The target of a further assay is EGFR-L858R/T790M (Homo sapiens (Human), UniProt P00533, L858R/T790M). Put plainly: In vitro EGFR kinase activity assay (Z'-Lyte). Type of assay: biochemical. To be noted: read-out: Inhibitory activity on EGFR kinase (IC50, nM) T790M/L858R.
Assay [1] concerns H1975 (non-small cell lung cancer cells, EGFR L858R/T790M). Briefly: Cell proliferation and growth inhibition analysis. It is filed as cell-based. To be noted: Homo sapiens, NCI-H1975, 72 hours, read-out: Inhibitory activity on cell proliferation (IC50, μM) H1975.
Assay [2] relates to HCC827 (non-small cell lung cancer cells, EGFR del E746-A750). Briefly: Cell proliferation and growth inhibition analysis. It is filed as cell-based. To be noted: Homo sapiens, 72 hours, read-out: Inhibitory activity on cell proliferation (IC50, μM) HCC827.
Assay [3] relates to A549 (non-small cell lung cancer cells, EGFR wild-type). Put plainly: Cell proliferation and growth inhibition analysis. Type of assay: cell-based. To be noted: Homo sapiens, 72 hours, read-out: Inhibitory activity on cell proliferation (IC50, μM) A549. As to the method: (§1) Cell proliferation and growth inhibition analysis: H1975 (non-small cell lung cancer cells, EGFR^L858/T790M), HCC827 (non-small cell lung cancer cells, EGFR^del E746-A750), A549 (non-small cell lung cancer cells, EGFR wild-type), BT474 (breast cancer cells, Her2 overexpression), SK-BR-3 (breast cancer cells, Her2 overexpression), MCF-7 (breast cancer cells, […]) cells were obtained from ATCC. Cell proliferation was evaluated by MTS assay. Cells were exposed to the process conditions for 72 hours, and the number of cells for each cell line used in the experiment was adjusted according to the absorbance value (absorbance value at 490 nm was 1.3-2.2). 6 concentration gradients (0.1 nM-10 μM) were set for the compounds to be tested, with six parallel controls for each concentration.

The test system of assay [4] is BT474 (breast cancer cells, Her2 overexpression). Put plainly: Cell proliferation and growth inhibition analysis. It is filed as cell-based. To be noted: Homo sapiens, BT-474, 72 hours, read-out: Inhibitory activity on cell proliferation (IC50, μM) BT474. Here is the method:
as §1

The next assay concerns MCF-7. Briefly: Cell proliferation and growth inhibition analysis. Type of assay: cell-based. To be noted: Homo sapiens, MCF7; MCF-7 cells, 72 hours; read-out: Inhibitory activity on cell proliferation (IC50, μM) MCF-7. Here is the method:
as §1

Assay [5] deals with SK-BR-3 (breast cancer cells, Her2 overexpression). Put plainly: Cell proliferation and growth inhibition analysis. It is filed as cell-based. To be noted: Homo sapiens; SK-BR-3 cells, 72 hours; read-out: Inhibitory activity on cell proliferation (IC50, μM) SK-BR-3. As to the method: as §1
The next assay has as its target BLK (Homo sapiens (Human), UniProt P51451). Put plainly: BLK kinase activity assay (Caliper). Type of assay: biochemical. To be noted: read-out: Inhibitory activity on kinase (IC50, nM) BLK.
The target of a further assay is FLT3 (Homo sapiens (Human), UniProt P36888). Briefly: FLT3 kinase activity assay (Caliper). To be noted: read-out: Inhibitory activity on kinase (IC50, nM) FLT3. Type of assay: biochemical.
The target of a further assay is EGFR-T790M (Homo sapiens (Human), UniProt P00533, T790M). Briefly: In vitro EGFR kinase activity assay (Z'-Lyte). To be noted: read-out: Inhibitory activity on EGFR kinase (IC50, nM) T790M.

This note sets out measurements from patent publication US9670213B2, “Pteridine ketone derivative and applications thereof as EGFR, BLK, and FLT3 inhibitor” (EAST CHINA UNIVERSITY OF SCIENCE AND TECHNOLOGY, priority 2012, dated 2017).

Where only a bound is given, the exact number is not on record here.
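For Inhibitory activity on EGFR kinase (IC50, nM) L858R in this document: Cell-free kinase reaction with peptide substrate and ATP, 1.5 h at room temperature, then development step cleaving non-phosphorylated peptide, 10-point dilution series 0.051–1000 nM, phosphopeptide as 100% phosphorylation control.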
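For Inhibitory activity on EGFR kinase (IC50, nM) T790M/L858R in this document: Cell-free kinase reaction with peptide substrate and ATP, 1.5 h at room temperature, development cleaving unphosphorylated peptide, 10-point dilution 0.051–1000 nM, phosphopeptide as 100% phosphorylation control.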
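For Inhibitory activity on EGFR kinase (IC50, nM) WT in this document: Ten-point dose series from 5.1×10^−11 to 1.0×10^−6 mol/L, kinase reaction 1.5 h at room temperature, then 1 h development cleaving unphosphorylated peptide, phosphopeptide as 100% phosphorylation control.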

FLT3, sequence (P36888 27-993): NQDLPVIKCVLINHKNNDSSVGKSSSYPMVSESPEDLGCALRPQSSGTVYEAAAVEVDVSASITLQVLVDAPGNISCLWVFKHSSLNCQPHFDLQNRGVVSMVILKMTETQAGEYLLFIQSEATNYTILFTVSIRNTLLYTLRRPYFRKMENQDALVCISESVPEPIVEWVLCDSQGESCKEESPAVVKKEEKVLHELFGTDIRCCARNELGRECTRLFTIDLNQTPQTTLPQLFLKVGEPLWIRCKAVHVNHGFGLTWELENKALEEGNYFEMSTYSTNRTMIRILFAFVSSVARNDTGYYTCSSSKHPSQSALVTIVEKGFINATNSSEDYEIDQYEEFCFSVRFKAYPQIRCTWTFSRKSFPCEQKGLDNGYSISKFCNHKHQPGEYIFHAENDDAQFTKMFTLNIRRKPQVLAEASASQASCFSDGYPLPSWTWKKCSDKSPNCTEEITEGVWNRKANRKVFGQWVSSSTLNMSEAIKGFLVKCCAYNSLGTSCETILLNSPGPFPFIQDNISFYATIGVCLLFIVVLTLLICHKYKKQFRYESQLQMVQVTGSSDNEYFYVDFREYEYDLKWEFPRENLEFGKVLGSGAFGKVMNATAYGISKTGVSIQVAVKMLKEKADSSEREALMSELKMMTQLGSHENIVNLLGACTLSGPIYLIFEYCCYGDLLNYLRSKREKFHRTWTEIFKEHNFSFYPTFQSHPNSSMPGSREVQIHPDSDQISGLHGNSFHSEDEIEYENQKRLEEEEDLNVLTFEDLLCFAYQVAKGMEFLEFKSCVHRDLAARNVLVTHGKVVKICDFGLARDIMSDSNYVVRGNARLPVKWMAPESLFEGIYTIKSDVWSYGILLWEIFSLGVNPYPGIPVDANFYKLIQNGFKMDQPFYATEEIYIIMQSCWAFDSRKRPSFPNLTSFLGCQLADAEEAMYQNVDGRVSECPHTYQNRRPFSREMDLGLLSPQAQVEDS
EGFR-L858R/T790M, sequence (P00533 25-1210 T790M/L858R): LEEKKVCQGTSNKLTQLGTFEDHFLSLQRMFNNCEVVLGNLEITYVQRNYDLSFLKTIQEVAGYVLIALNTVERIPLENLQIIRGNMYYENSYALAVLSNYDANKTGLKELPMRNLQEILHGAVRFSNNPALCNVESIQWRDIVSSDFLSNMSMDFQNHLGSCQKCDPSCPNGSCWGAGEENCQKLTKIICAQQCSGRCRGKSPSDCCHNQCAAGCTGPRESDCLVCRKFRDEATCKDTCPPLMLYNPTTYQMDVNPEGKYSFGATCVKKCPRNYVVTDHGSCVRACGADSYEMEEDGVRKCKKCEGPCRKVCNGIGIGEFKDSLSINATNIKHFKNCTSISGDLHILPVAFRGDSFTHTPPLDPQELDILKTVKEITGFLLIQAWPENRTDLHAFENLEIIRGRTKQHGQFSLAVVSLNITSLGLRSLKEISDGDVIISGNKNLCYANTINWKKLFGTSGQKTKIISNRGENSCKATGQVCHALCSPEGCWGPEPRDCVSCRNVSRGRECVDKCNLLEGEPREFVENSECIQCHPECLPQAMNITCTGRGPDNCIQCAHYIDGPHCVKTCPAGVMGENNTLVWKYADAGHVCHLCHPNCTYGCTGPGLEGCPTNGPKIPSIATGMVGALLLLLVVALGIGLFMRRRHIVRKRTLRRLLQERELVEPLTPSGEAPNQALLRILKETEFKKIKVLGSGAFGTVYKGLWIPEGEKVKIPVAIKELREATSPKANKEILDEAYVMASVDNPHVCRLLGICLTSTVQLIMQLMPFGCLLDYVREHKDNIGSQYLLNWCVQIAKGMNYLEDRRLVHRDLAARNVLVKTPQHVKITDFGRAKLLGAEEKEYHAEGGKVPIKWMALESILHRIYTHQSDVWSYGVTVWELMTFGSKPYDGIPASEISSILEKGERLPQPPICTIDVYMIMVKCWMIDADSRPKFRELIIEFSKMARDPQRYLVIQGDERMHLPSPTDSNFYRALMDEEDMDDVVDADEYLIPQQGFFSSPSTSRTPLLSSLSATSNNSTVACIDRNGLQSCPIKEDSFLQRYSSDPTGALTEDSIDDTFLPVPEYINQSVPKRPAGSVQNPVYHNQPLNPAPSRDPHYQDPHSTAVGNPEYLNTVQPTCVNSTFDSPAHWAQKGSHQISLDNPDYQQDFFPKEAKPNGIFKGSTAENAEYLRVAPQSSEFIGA
EGFR-T790M, sequence (P00533 25-1210 T790M): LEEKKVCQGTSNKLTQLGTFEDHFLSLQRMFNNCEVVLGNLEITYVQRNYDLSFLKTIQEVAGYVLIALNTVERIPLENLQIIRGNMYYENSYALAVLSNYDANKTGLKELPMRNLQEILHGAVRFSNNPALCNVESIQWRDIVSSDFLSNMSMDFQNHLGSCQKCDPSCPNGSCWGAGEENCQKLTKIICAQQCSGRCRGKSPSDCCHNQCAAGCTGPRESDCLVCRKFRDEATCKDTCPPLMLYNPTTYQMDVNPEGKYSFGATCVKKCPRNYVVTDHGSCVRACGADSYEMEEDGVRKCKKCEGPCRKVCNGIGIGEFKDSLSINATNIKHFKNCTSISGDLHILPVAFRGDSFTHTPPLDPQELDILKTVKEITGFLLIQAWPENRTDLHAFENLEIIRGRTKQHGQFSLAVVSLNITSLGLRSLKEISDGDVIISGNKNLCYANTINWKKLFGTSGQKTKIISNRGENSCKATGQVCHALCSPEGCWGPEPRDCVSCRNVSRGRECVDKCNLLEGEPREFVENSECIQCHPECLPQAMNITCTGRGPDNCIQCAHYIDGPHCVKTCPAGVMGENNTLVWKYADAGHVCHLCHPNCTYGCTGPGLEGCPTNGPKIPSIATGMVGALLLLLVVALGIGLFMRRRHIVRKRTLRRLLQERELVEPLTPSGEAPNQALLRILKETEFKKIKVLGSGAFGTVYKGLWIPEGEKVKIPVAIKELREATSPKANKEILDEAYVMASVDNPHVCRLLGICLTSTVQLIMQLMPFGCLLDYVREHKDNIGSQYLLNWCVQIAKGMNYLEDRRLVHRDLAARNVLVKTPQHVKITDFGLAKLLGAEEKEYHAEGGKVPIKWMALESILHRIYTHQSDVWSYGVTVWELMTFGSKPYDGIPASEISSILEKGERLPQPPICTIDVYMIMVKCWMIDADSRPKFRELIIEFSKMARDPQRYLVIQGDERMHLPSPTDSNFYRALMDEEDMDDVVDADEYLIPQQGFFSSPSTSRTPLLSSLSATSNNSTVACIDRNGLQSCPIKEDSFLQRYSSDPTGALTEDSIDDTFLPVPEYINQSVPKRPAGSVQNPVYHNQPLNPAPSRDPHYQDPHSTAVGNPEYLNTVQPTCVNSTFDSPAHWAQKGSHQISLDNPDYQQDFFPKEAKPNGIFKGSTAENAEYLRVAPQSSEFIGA
BLK, sequence (P51451 whole entry): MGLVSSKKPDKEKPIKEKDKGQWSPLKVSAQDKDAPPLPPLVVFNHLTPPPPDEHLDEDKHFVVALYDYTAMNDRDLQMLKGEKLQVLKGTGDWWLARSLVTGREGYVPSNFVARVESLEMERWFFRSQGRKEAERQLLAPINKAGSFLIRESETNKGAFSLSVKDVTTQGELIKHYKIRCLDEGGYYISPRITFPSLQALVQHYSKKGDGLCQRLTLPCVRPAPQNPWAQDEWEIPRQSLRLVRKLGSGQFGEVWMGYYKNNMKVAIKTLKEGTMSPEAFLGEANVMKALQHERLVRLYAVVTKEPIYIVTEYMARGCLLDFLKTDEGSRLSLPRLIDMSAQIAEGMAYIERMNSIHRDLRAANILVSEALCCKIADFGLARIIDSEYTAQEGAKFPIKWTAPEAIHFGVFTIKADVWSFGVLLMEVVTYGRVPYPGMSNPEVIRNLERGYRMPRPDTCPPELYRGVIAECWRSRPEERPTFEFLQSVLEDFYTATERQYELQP
EGFR-L858R, sequence (P00533 25-1210 L858R): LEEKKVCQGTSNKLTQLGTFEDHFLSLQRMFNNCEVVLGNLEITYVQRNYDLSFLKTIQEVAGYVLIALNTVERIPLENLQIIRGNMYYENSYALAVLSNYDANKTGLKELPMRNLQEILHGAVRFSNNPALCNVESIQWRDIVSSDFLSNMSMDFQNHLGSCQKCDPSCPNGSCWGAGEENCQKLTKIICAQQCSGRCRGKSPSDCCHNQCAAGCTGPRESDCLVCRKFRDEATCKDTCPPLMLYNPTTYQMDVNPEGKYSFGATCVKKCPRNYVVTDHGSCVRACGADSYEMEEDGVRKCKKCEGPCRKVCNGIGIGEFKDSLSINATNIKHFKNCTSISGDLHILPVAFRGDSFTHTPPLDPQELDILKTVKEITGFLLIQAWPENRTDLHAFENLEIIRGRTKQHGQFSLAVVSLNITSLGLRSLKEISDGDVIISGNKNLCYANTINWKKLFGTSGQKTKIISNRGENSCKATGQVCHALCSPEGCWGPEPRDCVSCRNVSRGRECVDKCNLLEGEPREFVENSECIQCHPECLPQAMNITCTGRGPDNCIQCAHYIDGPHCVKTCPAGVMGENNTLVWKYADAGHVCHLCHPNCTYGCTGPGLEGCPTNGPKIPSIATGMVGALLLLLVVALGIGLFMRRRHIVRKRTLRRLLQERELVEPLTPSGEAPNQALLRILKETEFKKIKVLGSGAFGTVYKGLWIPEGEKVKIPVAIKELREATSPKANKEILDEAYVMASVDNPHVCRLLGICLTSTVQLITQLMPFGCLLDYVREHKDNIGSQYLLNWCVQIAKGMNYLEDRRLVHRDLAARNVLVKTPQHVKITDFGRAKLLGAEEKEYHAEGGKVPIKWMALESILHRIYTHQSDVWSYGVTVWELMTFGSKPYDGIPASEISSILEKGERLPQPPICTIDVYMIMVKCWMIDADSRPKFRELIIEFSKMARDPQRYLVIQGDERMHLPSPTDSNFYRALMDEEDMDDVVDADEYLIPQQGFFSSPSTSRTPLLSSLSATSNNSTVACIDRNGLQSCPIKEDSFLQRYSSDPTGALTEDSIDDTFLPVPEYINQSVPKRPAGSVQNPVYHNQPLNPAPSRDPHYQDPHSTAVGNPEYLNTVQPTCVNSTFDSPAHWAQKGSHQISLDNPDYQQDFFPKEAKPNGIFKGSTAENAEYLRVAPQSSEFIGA

With `COc1ccc(Nc2ncc3ncc(=O)n(-c4ccc(NC(=O)/C=C/CN(C)C)cc4)c3n2)cc1` [Compound 009, 4-(dimethylamino)-N-(4-(2-(4-methoxyphenylamino)-7-oxo-8(7H)-pteridin-yl)phenyl)-2-buteneamide], the IC50 was found to be 60.7 nM on wild-type EGFR; 81.1 nM at EGFR-L858R; 39.1 nM on EGFR-L858R/T790M; 4.65 µM in assay [1]; 0.91 µM in assay [2]; 2.24 µM in [3]. Further, the IC50 in [4] stood at 0.84 µM; in the assay on MCF-7, 2.41 µM; in assay [5], 1.15 µM; on BLK, 5310 nM; on FLT3, 152 nM; at EGFR-T790M it was 10.9 nM.

Regarding `COc1ccc(Nc2ncc3ncc(=O)n(-c4cccc(NC(=O)/C=C/CN(C)C)c4)c3n2)cc1` [Compound 010, 4-(dimethylamino)-N-(3-(2-(4-methoxyphenylamino)-7-oxo-8(7H)-pteridin-yl)phenyl)-2-buteneamide], the IC50 on wild-type EGFR was 8090 nM; at EGFR-L858R, 6080 nM; on EGFR-L858R/T790M, 2020 nM; in [1] it was > 10 µM; in assay [2] it was 4.16 µM; in [3] it was > 10 µM. For the same compound, the IC50 in [4] worked out at 3.43 µM; with MCF-7, 3.6 µM; in [5], 7.17 µM; at BLK, 106 nM; at FLT3, 4390 nM; at EGFR-T790M it was 2250 nM.
